Results: patent US20230323336A1, “HIGH-THROUGHPUT, DROPLET-BASED SINGLE CELL RNA SEQUENCING” (priority 2021, published 2023)
In brackets after ≈: the same amount, converted by molar mass.

What was measured:
[1] = system: MGH66: PyhcN:gfp; test: MIC by standard microdilution, reporter strain MGH66: PyhcN:gfp; format: cell-based, K. pneumoniae
Excerpt: (§1) Applicants amplified the promoter region of cspD or yhcN from MGH66 and ligated it into pUA139^26 using the BamHI and XhoI sites, resulting in pUA139-PcspD and pUA139-PyhcN. The construct was then transformed into E.coli DH5a and the plasmids were extracted and verified using Sanger sequencing. Electrocompetent cells of MGH66 was made as previously reported^22. The extracted plasmids were then transformed into MGH66 via electroporation, generating MGH66: PcspD:gfp and MGH66: PyhcN:gfp.
(§2) The cells for flow cytometry were prepared using the same scheme as the meropenem-treated sample for BacDrop. After treating with meropenem at 2 µg/mL for 30 minutes, cells were diluted into PBS at the final concentration of 10^6 cells/mL and immediately run through flow cytometer. For the flow cytometry including dead-cell staining, 10 µL propidium iodide (1 mg/mL) (Invitrogen, cat# P1304MP) was mixed with 1 mL PBS. Cells after treatment were then diluted in the staining buffer at the final concentration of 10^6 cells/mL, and incubated in the dark at room temperature for 15 minutes followed by running through flow cytometer. To sort GFP-low and GFP-high populations, cells were run through fluorescence-activated cell sorting (FACS). Applicants sorted ~10^6 cells into 2 mL LB without or with meropenem (2 µg/mL) from each population. […]

[2] = system: MGH66; test: MIC by standard microdilution, strain MGH66; format: cell-based, K. pneumoniae; conditions: for MIC: Klebsiella pneumoniae
Method: (§3) The cells for flow cytometry were prepared using the same scheme as the meropenem-treated sample for BacDrop. After treating with meropenem at 2 µg/mL for 30 minutes, cells were diluted into PBS at the final concentration of 10^6 cells/mL and immediately run through flow cytometer. For the flow cytometry including dead-cell staining, 10 µL propidium iodide (1 mg/mL) (Invitrogen, cat# P1304MP) was mixed with 1 mL PBS. Cells after treatment were then diluted in the staining buffer at the final concentration of 10^6 cells/mL, and incubated in the dark at room temperature for 15 minutes followed by running through flow cytometer. To sort GFP-low and GFP-high populations, cells were run through fluorescence-activated cell sorting (FACS). Applicants sorted ~10^6 cells into 2 mL LB without or with meropenem (2 µg/mL) from each population. A 50 µL aliquot from cells sorted in LB medium without antibiotics was immediately diluted and plated on LB agar plates without antibiotics. The colony forming unites (CFU) on LB agar plates were enumerated to calculate the survival rates. The rest of the cells was used to measure MICs using the standard microdilution protocol^29 or proceeded with the persister assay. For the persister assay, cells were cultured at 37° C. with shaking. At each time points, a 50 µL aliquot was taken, diluted and plated on LB agar plates without antibiotics. Three replicates were performed in each experiment.

[3] = system: BIDMC35; test: MIC by standard microdilution, strain BIDMC35; format: cell-based, K. pneumoniae; conditions: for MIC: Klebsiella pneumoniae
Method: as §3

[4] = system: K. pneumoniae MGH66; format: cell-based
Method: (§4) K.pneumoniae, E.coli, and P. aeruginosa were cultured in Luria-Bertani (LB) medium or Mueller-Hinton Broth (MHB) with shaking at 37° C.E.faecium was cultured in Todd-Hewitt broth (THB) with shaking at 37° C. For the GFP experiment, E.coli strains expressing gfp driven by different promoters were cultured separately in LB at 37° C. Early exponential growth phase cells (OD600 ~0.2) were collected and fixed immediately. For the antibiotic treatment experiment, K.pneumoniae clinical isolate MGH66 was cultured in MHB at 37° C. until early exponential phase. Then the culture was diluted to OD600 0.05 in MHB. After growing for two doublings (~40 min, OD600 ~0.2), the cultures were split into four equal volume cultures. One culture was left untreated, while the other three were treated with relevant antibiotic at breakpoint concentrations set by the Clinical and Laboratory Standards Institute (CLSI): 2 µg/mL for meropenem, 1 µg/mL for ciprofloxacin and 4 µg/mL for gentamicin. After 30 min, 7 mL of cells were collected from each of these cultures, and immediately proceeded with the cell fixation protocol. For the bulk RNA-seq experiments, samples were collected using the same treatment schemes, and three biological replicates were included in each condition. For the BIDMC35 experiment, BIDMC35 was cultured in LB medium at 37° C. until early exponential phase (OD600 ~0.2). 7 mL cells were then collected and immediately proceed with the cell fixation protocol.
All reagents (Table 5) for cell fixation and permeabilization were kept ice-cold. […] (Digital Platform Rocker Shaker, VWR). […] Subsequent centrifugations were carried out at 7000 × g for 5 minutes at 4° C. […] Cells were centrifuged and resuspended in 700 µL50% Ethanol in PBS-RI. Cells were then washed twice with PBS-RI. After the second wash, cells were resuspended in 1 mL100 mM Tris-HCL (pH 7.5) supplemented with 0.1 U/uL NxGen RNase inhibitor.
Insufficient permeabilization may result in inefficient rRNA depletion and gDNA removal. For 1 permeabilization reaction, up to 40 million cells were centrifuged and resuspended in 250 µL0.04% Tween-20 in 1x PBS. If more cells are desired, multiple parallel reactions can be set up. Immediately following a 3-minute incubation on ice, 1 mL cold PBS-RI was added, and cells were spun down and resuspended in 200 µL lysozyme mix (100 mM Tris (pH 8.0), 50 mM EDTA pH 8.0, 0.25 U/µL NxGen RNase Inhibitor, 2.5 mg/mL lysozyme). Cells were then incubated at 37° C. for 15 minutes. After the incubation, 1 mL PBS-RI was added and cells were washed twice with 175 µL PBS-RI. After the second wash, cells were resuspended in 150 µL PBS (without RNase inhibitor added) and cell concentrations were measured.
Immediately after cell permeabilization, up to 40 million cells were centrifuged and resuspended in 11 µL nuclease-free H2O. 2 µL NEBNext Bacterial rRNA depletion solution and 2 µL Probe Hybridization Buffer (NEB, CN E7850) were mixed with cells on ice. The hybridization was conducted per the following (lid temperature set to 55° C.): 50° C. for 2 minutes, ramp down to 22° C. at 0.1° C. /second, and hold at 22° C. for 5 minutes. Probe hybridization was immediately followed by RNase H digestion by mixing the probe-hybridized cells with 2 µL RNase H reaction buffer, 2 µL Thermostable RNase H (NEB, CN E7850), and 1 µL nuclease-free H2O, followed by a 30-minute incubation at 50° C. (lid temperature set to 55° C.). […] The reaction was incubated at room temperature for 30 minutes, and the DNase treatment was stopped by adding 1 µL Stop Solution (50 mM EDTA) and incubating at 50° C. for 10 minutes. After the incubation, cells were centrifuged and washed twice with 100 µL PBS-RI. After the second wash, cells were resuspended in 20 µL0.5x PBS supplemented with 1 U/µL SUPERase-In RNase inhibitor and used immediately for in-cell reverse transcription.

[5] = system: MGH66: PcpsD:gfp; test: MIC by standard microdilution, reporter strain MGH66: PcpsD:gfp; format: cell-based, K. pneumoniae
Excerpt: as §1, §2

[6] = system: K. pneumoniae MGH66; test: Bulk RNA-seq of antibiotic-treated MGH66; format: cell-based; conditions: MGH66, OD600 ~0.2, 30 minutes treatment
Method: as §4
To construct sequencing libraries from bacterial cultures, cell pellets collected from 1 mL early exponential phase cultures were re-suspended in 500 µL TRIzol Reagents (ThermoFisher, CN 15596026) and frozen at -80 C for at least 20 min. Cells were then thawed and mixed with 250 µL of 0.1 mm diameter Zirconia/Silica beads (BioSpec Products), and lysed mechanically via bead-beating for 90 second at 10 m/sec on a FastPrep (MP Bio). After addition of 0.1 mL chloroform, each sample tube was mixed thoroughly by inversion, incubated for 3 minutes at room temperature, and centrifuged at 12,000 xg for 15 minutes at 4° C. […]

[7] = system: UCI38; test: MIC by standard microdilution, strain UCI38; format: cell-based, K. pneumoniae; conditions: for MIC: Klebsiella pneumoniae
Method: as §3

[8] = system: E. coli 10ß; test: MIC by standard microdilution, strain E. coli 10ß; format: cell-based
Method: as §3, with “Three replicates were performed in each experiment.” left out

[9] = system: MGH66:PcspD:gfp sorted subpopulations; MGH66 over-expressing cspD; test: Persister assay (CFU over time under meropenem); format: cell-based, K. pneumoniae; conditions: meropenem 2 µg/mL
Method: as §3, with “Three replicates were performed in each experiment.” left out

[10] = system: MGH66; test: Killing kinetics of MGH66 treated with antibiotics (CFU); format: cell-based, K. pneumoniae; conditions: MGH66, at 30 minutes
Method: At each time points, cells from meropenem treatment (green), Ciprofloxacin treatment (blue), Gentamicin treatment (purple), and the untreated samples were diluted and plated on LB agar plates without antibiotics. CFUs from each condition were normalized to the CFUs of the untreated samples at the same time points to calculate the killing rates for each time points. The experiment was repeated three times and the error bars are plotted as standard deviation.

[11] = system: MGH66:PyhcN:gfp and MGH66:PcspD:gfp; test: Flow cytometry/FACS of GFP reporter strains with live/dead staining; format: cell-based, K. pneumoniae
Excerpt: as §1, §3

[12] = system: MGH66:pBA D: cspD; test: MIC by standard microdilution, strain MGH66:pBAD:cspD; format: cell-based, K. pneumoniae; conditions: cspD induced with 1% arabinose
Method: as §3, with “Three replicates were performed in each experiment.” left out

[13] = system: MGH66; test: RNA FISH of meropenem-treated MGH66; format: cell-based, K. pneumoniae; conditions: meropenem-treated MGH66, 20 fields of view
Method: RNA FISH probes were designed using Design Probes tool of DECIPHER^32. 3 - 5 probes were designed for each target gene (Table 11). Probes were synthesized at Integrated DNA technologies and labeled with either Cy3 or Alex488 dye at the 5′. Probes of the same gene were pooled together and diluted into 10 µM stocks. Meropenem-treated MGH66 cells were fixed and permeabilized using the same protocol as the cell fixation and permeabilization steps in BacDrop. The hybridization was carried out in 40% hybridization buffer at 50° C. overnight and the following washing steps of washing were performed as described previously^33. Cells were imaged using the DeltaVision widefield deconvolution imaging system with a 60x objective. ImageJ was used for image data analysis and cell quantification.

[14] = 30 minutes of meropenem treatment
[15] = meropenem-treated MGH66, 2 µg/mL, 30 min

Molecule: gentamicin
- MICs [1]: 1 µg/mL
- MICs [2]: 1 µg/mL
- MICs [3]: 0.5 µg/mL
- heterogeneity of single-cell transcriptional response ([4]; MGH66, 30 min treatment): did not detect obvious heterogeneity of response
- treated cells belonging to the heat-shock response cluster ([4]; MGH66, 30 min treatment, across both replicates): 66%-71%
- MICs [5]: 1 µg/mL
- transcriptional response in bulk RNA-seq relative to untreated control [6]: induced a group of heat shock chaperone proteins
- MICs [7]: 2 µg/mL
- MICs [8]: <0.03 µg/mL

Molecule: C[C@@H](O)[C@H]1C(=O)N2C(C(=O)O)=C(S[C@@H]3CN[C@H](C(=O)N(C)C)C3)[C@H](C)[C@H]12 [Meropenem, meropenem]
- persister cells in MGH66 over-expressing cspD versus without induction ([9]; 1% arabinose induction): ~ 100 times
- tolerant cells/persisters in GFP-high versus GFP-low sorted subpopulation ([9]; MGH66:PcspD:gfp sorted after 30-minute exposure): enriched for meropenem tolerant cells
- MIC [2]: 0.03 µg/mL (≈ 0.0782 µM)
- impact on cell killing [10]: same impact on cell killing as ciprofloxacin and gentamicin
- MIC [3]: > 32 µg/mL
- dead cells in the gated population (propidium iodide) [11, 14]: ~ 15.2%
- live cells in the GFP-high population [11, 14]: about 94%
- live cells in the GFP-low population [11, 14]: approximately 80%
- heterogeneous expression of yhcN or cspD GFP reporters ([11]; MGH66:PyhcN:gfp, relative to untreated control): induced heterogeneous expression
- cells co-expressing cspD and rihC, BacDrop ([4]; meropenem-treated MGH66): ~ 0.7%
- cells co-expressing rseB + yidC, BacDrop ([4]; meropenem-treated MGH66): ~ 8%
- cells in DNA replication and cell division subpopulation (cluster 9) [4, 15]: 1%
- cells in cell wall/membrane synthesis subpopulation (cluster 7 and 11) [4, 15]: 5.7%
- cells in cspD-expressing subpopulation (cluster 10) [4, 15]: 0.7%
- cells in strongest stress response subpopulation (clusters 5 and 12) [4, 15]: 8%
- transcriptional response in bulk RNA-seq relative to untreated control [6]: minimal transcriptional responses
- MIC [7]: 0.03 µg/mL (≈ 0.0782 µM)
- effect of cspD induction on MIC [12]: did not affect
- cells co-expressing cspD and rihC, RNA FISH [13]: ~ 0.85%
- cells co-expressing rseB + yidC, RNA FISH [13]: ~ 12%
- MIC ([8]; Escherichia coli): < 0.03 µg/mL

Molecule: O=C(O)c1cn(C2CC2)c2cc(N3CCNCC3)c(F)cc2c1=O [Ciprofloxacin, ciprofloxacin]
- MIC [2]: 0.03 µg/mL (≈ 0.0905 µM)
- MIC [3]: > 32 µg/mL
- heterogeneity of single-cell transcriptional response ([4]; MGH66, 30 min treatment): did not detect obvious heterogeneity of response
- transcriptional response in bulk RNA-seq relative to untreated control [6]: induced genes involved in SOS response
- MIC [7]: 32 µg/mL (≈ 96.6 µM)
